Reference: patent publication US20060165814A1, “Amines, combination of amines and vanadium and amine vanadium salts for the treatment or prevention of dyslipidemia” (Genmedica Therapeutics SL, priority 2004, published 2006)

Key:
rat adipocytes = settings: amine in combination with low concentrations of vanadate; cited from earlier work
[1] = tested on: streptozotocin-induced diabetic rats; test: Oral chronic administration, plasma cholesterol in diabetic rats; format: in vivo, rat; settings: single daily oral dose for 17 days, 5 μmol/kg/day day 0-7 and 10 μmol/kg/day day 8-17
From the text: FIG. 1 is a bar graph of the plasma concentration of cholesterol (Ch) (expressed in mmol/L) measured in nondiabetic rats (C), streptozotocin-induced diabetic rats (D) or diabetic rats treated for 17 days with a single daily oral dose of hexaquis(benzylammonium) decavanadate (5 μmol/kg/day between day 0 and day 7 and 10 μmol/kg/day from day 8 to day 17 of treatment) (BV). Cholesterol concentrations in the D group were statistically significant from the C group at p<0.05.
Oral administration of hexaquis(benzylammonium) decavanadate was tested to determine whether it ameliorated dyslipidemia associated to diabetes. Diabetes was induced in rats by intravenous administration of streptozotocin, causing a substantial increase in plasma cholesterol concentrations compared to nondiabetic rats (FIG. 1).

[2] = tested on: streptozotocin-induced diabetic rats; test: Subcutaneous chronic administration, plasma triglyceride and free fatty acids in diabetic rats; format: in vivo, rat; settings: subcutaneously infused for 28 days; B6V10 1.25 or 2.5 μmol/kg/day, V10 1.25 μmol/kg/day; streptozotocin (100 mg/kg) diabetic rats
From the text: FIG. 2A though 2D are bar graphs showing plasma concentrations of insulin (FIG. 2A), glucose (FIG. 2B), free fatty acids (FIG. 2C) and triglycerides (FIG. 2D) measured in nondiabetic rats (C), streptozotocin-induced diabetic rats (Diab) or diabetic rats treated for 28 days with subcutaneously infused decanadate (V10, 1.25 μmol/kg/day) or hexaquis(benzylammonium) decavanadate (B6V10) at two different doses (1.25 μmol/kg/day or 2.5 μmol/kg/day). * indicates the existance of statistically significant differences from the Diab group at p<0.05.
Subcutaneous administration of hexaquis(benzylammonium) decavanadate was tested to determine whether it ameliorated the dyslipidemia associated with diabetes. Diabetes was induced in rats by intravenous administration of a large dose of streptozotocin (100 mg/kg), causing a complete disappearance of plasma insulin and very high concentrations of plasma glucose (FIGS. 2A and 2B). Induction of diabetes was also associated with substantial increases in plasma free fatty acid and triglyceride concentrations compared to nondiabetic rats (FIGS. 2C and 2D). Under these conditions, subcutaneous treatment with different doses of hexaquis(benzylammonium) decavanadate normalized plasma concentrations of free fatty acids and triglycerides so that no differences between control and hexaquis(benzylammonium) decavanadate-treated rats were detectable (FIGS. 2C and 2D).

[3] = tested on: streptozotocin-induced diabetic rats; test: Subcutaneous chronic administration, plasma cholesterol in diabetic rats; format: in vivo, rat; settings: subcutaneously infused for 28 days; B6V10 1.25 or 2.5 μmol/kg/day, V10 1.25 μmol/kg/day; streptozotocin (100 mg/kg) diabetic rats
From the text: FIG. 3A through 3D show plasma concentrations of total cholesterol (FIG. 3A), nonesterified cholesterol (FIG. 3B), esterified cholesterol (FIG. 3C) and HDL-cholesterol (FIG. 3D) measured in nondiabetic rats (C), streptozotocin-induced diabetic rats (Diab) or diabetic rats treated for 28 days with subcutaneously infused decanadate (V10, 1.25 μmol/kg/day) or hexaquis(benzylammonium) decavanadate (B6V10) at two different doses (1.25 μmol/kg/day or 2.5 μmol/kg/day). * indicates the existance of statistically significant differences from the Diab group at p<0.05.
Subcutaneous administration of hexaquis(benzylammonium) decavanadate was performed to determine the effect on altered plasma concentrations of cholesterol associated to diabetes. Diabetes was induced in rats by intravenous administration of a large dose of streptozotocin (100 mg/kg). Experimentally-induced Diabetes was associated with substantial increases in total plasma cholesterol and nonesterified cholesterol and a reduction in esterified cholesterol concentrations compared to nondiabetic rats (FIG. 3A). HDL-cholesterol concentrations were unaltered by diabetes […]. Under these conditions, subcutaneous treatment with different doses of hexaquis(benzylammonium) decavanadate reduced plasma concentrations of total cholesterol and nonesterified cholesterol and increased esterified cholesterol concentrations so no differences between control and hexaquis(benzylammonium) decavanadate-treated rats were detectable (FIG. 3C).

Compound | glucose transport (rat adipocytes) | plasma cholesterol levels [1] | plasma concentration of free fatty acids [2] | plasma concentration of triglycerides [2] | plasma concentration of esterified cholesterol [3] | plasma concentration of nonesterified cholesterol [3] | plasma concentration of total cholesterol [3]
NCc1ccccc1 [benzylamine] | stimulates glucose transport |  |  |  |  |  | 
hexaquis(benzylammonium) decavanadate |  | substantially reduced | normalized | normalized | increased | reduced | reduced
NCCc1ccc(O)cc1 [tyramine] | stimulates glucose transport |  |  |  |  |  | 
[O]=[V]([O-])([O-])[O][V]1(=[O])[O][V]2(=[O])[O][V](=[O])([O][V](=[O])([O-])[O-])[O][V](=[O])([O]2)[O][V]2(=[O])[O][V](=[O])([O][V](=[O])([O-])[O-])[O][V](=[O])([O]1)[O]2 (stereo not shown) [decavanadate, reference compound] |  |  | did not alter | did not alter | not significantly different | not significantly different | significant reduction
